Patent publication US7371762B2, “3-substituted 6,7-dihydroxytetrahydroisoquinoline derivatives for use as antibacterial agents” (Arpida AG, priority 2001, dated 2008)
In brackets after ≈: the same amount, converted by molar mass.

Experiments:
Test in all cases: Minimal inhibitory concentration (MIC), NCCLS M7-A5 procedure
Type in all cases: cell-based
Escherichia coli DC2 = details: read-out: Minimal inhibitory concentration (MIC) EC DC2
Protocol: (§1) Minimal inhibitory concentrations (MIC) were determined in accordance with the National Committee for Clinical Laboratory Standards (NCCLS) procedure [M7-A5, 2001].
(§2) The results obtained are summarized in table 1 and are expressed in jig/ml. In this table 1, EC 25922 means Escherichia coli ATCC25922, EC DC2 means Escherichia coli DC2, SA 25923 means Staphylococcus aureus ATCC25923 and SA 101 means Staphylococcus aureus 101. (ATCC=American Type Culture Collection)
(§3) M7-A5* (2001): Methods for Dilution Antimicrobial Susceptibility Tests for Bacteria that Grow Aerobically; Approved Standard—Fifth Edition American National Standard.

[1] = tested on: Staphylococcus aureus ATCC25923; details: read-out: Minimal inhibitory concentration (MIC) SA 25923
Protocol: as §1, §2, §3

[2] = tested on: Escherichia coli ATCC25922; details: read-out: Minimal inhibitory concentration (MIC) EC 25922
Protocol: as §1, §2, §3

[3] = tested on: Staphylococcus aureus 101; details: read-out: Minimal inhibitory concentration (MIC) SA 101
Protocol: as §1, §2, §3

SMILES | MIC (Escherichia coli DC2) [µg/mL] | MIC [1] [µg/mL] | MIC [2] [µg/mL] | MIC [3] [µg/mL]
Oc1cc2c(cc1O)CC(c1ccc(O)c3ccccc13)NC2 (stereo not shown) [Example 5, 3-(4-Hydroxy-naphthalen-1-yl)-1,2,3,4-tetrahydro-isoquinoline-6,7-diol] | 16 (≈ 52.1 µM) | 32 (≈ 104 µM) |  | 
Oc1cc2c(cc1O)CC(COc1ccc(Cl)c(Cl)c1)NC2 (stereo not shown) [Example 13, 3-(3,4-Dichloro-phenoxymethyl)-1,2,3,4-tetrahydro-isoquinoline-6,7-diol] | 16 (≈ 47 µM) | 16 (≈ 47 µM) | > 128 | 16 (≈ 47 µM)
Oc1ccc(-c2ccc(C3Cc4cc(O)c(O)cc4CN3)cc2)cc1 (stereo not shown) [Example 19, 3-(4′-Hydroxy-biphenyl-4-yl)-1,2,3,4-tetrahydro-isoquinoline-6,7-diol] | 64 (≈ 192 µM) | 128 (≈ 384 µM) | > 128 | 128 (≈ 384 µM)
Oc1cc2c(cc1O)CC(c1ccc(Br)cc1)NC2 (stereo not shown) [Example 16, 3-(4-Bromo-phenyl)-1,2,3,4-tetrahydro-isoquinoline-6,7-diol] | 32 (≈ 99.9 µM) | 8 (≈ 25 µM) | > 128 | 64 (≈ 200 µM)
OCC1Cc2cc(O)c(O)cc2CN1 (stereo not shown) [Example 6, 3-Hydroxymethyl-1,2,3,4-tetrahydro-isoquinoline-6,7-diol] | 32 (≈ 164 µM) | 16 (≈ 82 µM) | 64 (≈ 328 µM) | 16 (≈ 82 µM)
Oc1cc2c(cc1O)CC(COc1ccc(Cl)cc1Cl)NC2 (stereo not shown) [Example 10, 3-(2,4-Dichloro-phenoxymethyl)-1,2,3,4-tetrahydro-isoquinoline-6,7-diol] | 2 (≈ 5.88 µM) | 8 (≈ 23.5 µM) | 128 (≈ 376 µM) | 16 (≈ 47 µM)
Oc1cc2c(cc1O)CN(Cc1ccccc1)C(COc1ccc(Cl)cc1Cl)C2 (stereo not shown) [Example 11, 2-Benzyl-3-(2,4-dichloro-phenoxymethyl)-1,2,3,4-tetrahydro-isoquinoline-6,7-diol] | > 128 | 8 (≈ 18.6 µM) | > 128 | 8 (≈ 18.6 µM)
CC1NC(c2ccc(Oc3ccccc3)cc2)Cc2cc(O)c(O)cc21 (stereo not shown) [Example 3, 1-Methyl-3-(4-phenoxy-phenyl)-1,2,3,4-tetrahydro-isoquinoline-6,7-diol] | 32 (≈ 92.1 µM) | 16 (≈ 46.1 µM) |  | 
Oc1cc2c(cc1O)CC(c1ccc(-c3ccccc3O)cc1)NC2 (stereo not shown) [Example 20, 3-(2′-Hydroxy-biphenyl-4-yl)-1,2,3,4-tetrahydro-isoquinoline-6,7-diol] | 32 (≈ 96 µM) | 16 (≈ 48 µM) | 128 (≈ 384 µM) | 32 (≈ 96 µM)
Oc1cc2c(cc1O)CC(c1ccc(-c3ccc(C(F)(F)F)cc3)cc1)NC2 (stereo not shown) [Example 17, 3-(4′-Trifluoromethyl-biphenyl-4-yl)-1,2,3,4-tetrahydro-isoquinoline-6,7-diol] | 8 (≈ 20.8 µM) | 4 (≈ 10.4 µM) | 64 (≈ 166 µM) | 8 (≈ 20.8 µM)
Oc1cc2c(cc1O)CC(c1ccc(Oc3ccccc3)cc1)NC2 (stereo not shown) [Example 1, 3-(4-Phenoxy-phenyl)-1,2,3,4-tetrahydro-isoquinoline-6,7-diol] | 8 (≈ 24 µM) | 8 (≈ 24 µM) | 32 (≈ 96 µM) | 8 (≈ 24 µM)
COc1ccc(C2Cc3cc(O)c(O)cc3CN2)c2ccccc12 (stereo not shown) [Example 4, 3-(4-Methoxy-naphthalen-1-yl)-1,2,3,4-tetrahydro-isoquinoline-6,7-diol] | 32 (≈ 99.6 µM) | 32 (≈ 99.6 µM) |  | 
Oc1cc2c(cc1O)CC(COc1cc(Cl)ccc1Cl)NC2 (stereo not shown) [Example 14, 3-(2,5-Dichloro-phenoxymethyl)-1,2,3,4-tetrahydro-isoquinoline-6,7-diol] | 32 (≈ 94.1 µM) | 64 (≈ 188 µM) | 128 (≈ 376 µM) | 64 (≈ 188 µM)
Oc1cc2c(cc1O)CN(Cc1ccccc1)C(c1ccc(Oc3ccccc3)cc1)C2 (stereo not shown) [Example 2, 2-Benzyl-3-(4-phenoxy-phenyl)-1,2,3,4-tetrahydro-isoquinoline-6,7-diol] | 64 (≈ 151 µM) | 64 (≈ 151 µM) | > 128 | 32 (≈ 75.6 µM)
Oc1cc2c(cc1O)CC(c1ccc3oc4ccccc4c3c1)NC2 (stereo not shown) [Example 7, 3-Dibenzofuran-2-yl-1,2,3,4-tetrahydro-isoquinoline-6,7-diol] | 32 (≈ 96.6 µM) | 8 (≈ 24.1 µM) | 64 (≈ 193 µM) | 16 (≈ 48.3 µM)
Oc1cc2c(cc1O)CC(c1ccc(-c3ccccc3)cc1)NC2 (stereo not shown) [Example 12, 3-Biphenyl-4-yl-1,2,3,4-tetrahydro-isoquinoline-6,7-diol] | 8 (≈ 25.2 µM) | 4 (≈ 12.6 µM) | 16 (≈ 50.4 µM) | 16 (≈ 50.4 µM)
Oc1cc2c(cc1O)CC(c1ccc(Cl)cc1)NC2 (stereo not shown) [Example 15, 3-(4-Chloro-phenyl)-1,2,3,4-tetrahydro-isoquinoline-6,7-diol] | 32 (≈ 116 µM) | 16 (≈ 58 µM) | 128 (≈ 464 µM) | 32 (≈ 116 µM)
Oc1cc2c(cc1O)CC(c1ccc(-c3ccc(F)cc3F)cc1)NC2 (stereo not shown) [Example 21, 3-(2′,4′-Difluoro-biphenyl-4-yl)-1,2,3,4-tetrahydro-isoquinoline-6,7-diol] | 8 (≈ 22.6 µM) | 8 (≈ 22.6 µM) | 32 (≈ 90.6 µM) | 8 (≈ 22.6 µM)
N#Cc1cccc(-c2ccc(C3Cc4cc(O)c(O)cc4CN3)cc2)c1 (stereo not shown) [Example 22, 4′-(6,7-Dihydroxy-1,2,3,4-tetrahydro-isoquinolin-3-yl)-biphenyl-3-carbonitrile] | 64 (≈ 187 µM) | 128 (≈ 374 µM) | > 128 | > 128
CN(C)c1ccc(-c2ccc(C3Cc4cc(O)c(O)cc4CN3)cc2)cc1 (stereo not shown) [Example 18, 3-(4′-Dimethylamino-biphenyl-4-yl)-1,2,3,4-tetrahydro-isoquinoline-6,7-diol] | 8 (≈ 22.2 µM) | 4 (≈ 11.1 µM) | > 128 | 16 (≈ 44.4 µM)
Oc1cc2c(cc1O)CC(c1ccc(Sc3ccccc3)cc1)NC2 (stereo not shown) [Example 8, 3-(4-Phenylsulfanyl-phenyl)-1,2,3,4-tetrahydro-isoquinoline-6,7-diol] | 32 (≈ 91.6 µM) | 8 (≈ 22.9 µM) | 64 (≈ 183 µM) | 32 (≈ 91.6 µM)
Oc1cc2c(cc1O)CC(c1ccc(Cl)cc1Cl)NC2 (stereo not shown) [Example 9, 3-(2,4-Dichloro-phenyl)-1,2,3,4-tetrahydro-isoquinoline-6,7-diol] | 64 (≈ 206 µM) | 64 (≈ 206 µM) | 128 (≈ 413 µM) | 64 (≈ 206 µM)
